Measurements as given in ChEMBL document CHEMBL1201862, “PubChem BioAssay data set” (2004).
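Method: 48-hour compound exposure of cells in 96-well plates, five concentrations, linear interpolation of endpoints. GI50 = concentration required for 50% inhibition of growth.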 Active and inactive are the calls of the source. Rule as the data show it: active = GI50 up to about 1.1 µM and inactive = higher.

How the values were obtained:
Experiment in all cases: DTP human tumour cell line panel, 48 h
ACHN = system: ACHN
CCRF-CEM = system: CCRF-CEM
DU-145 = system: DU-145
EKVX = system: EKVX
HCC 2998 = system: HCC 2998
HCT-116 = system: HCT-116
M14 = system: M14
MCF7 = system: MCF7
MDA-MB-231 = system: MDA-MB-231
MDA-N = system: MDA-N
NCI-H23 = system: NCI-H23
NCI/ADR-RES = system: NCI/ADR-RES
OVCAR-8 = system: OVCAR-8
SF-539 = system: SF-539
SN12C = system: SN12C
SNB-19 = system: SNB-19
SNB-75 = system: SNB-75
SR = system: SR
TK-10 = system: TK-10
A498 = system: A498

Measured: GI50

CC1(C)N=C(/C(C#N)=[N+](/[O-])C(=O)c2ccccc2)C(C)(C)N1O
inactive: ACHN > 100 µM | CCRF-CEM > 100 µM | DU-145 > 100 µM | EKVX > 100 µM | HCC 2998 > 100 µM | HCT-116 > 100 µM | M14 > 100 µM | MCF7 > 100 µM | MDA-MB-231 > 100 µM | MDA-N > 100 µM | NCI-H23 > 100 µM | NCI/ADR-RES > 100 µM | OVCAR-8 > 100 µM | SF-539 > 100 µM | SN12C > 100 µM | SNB-19 > 100 µM | SNB-75 > 100 µM | SR > 100 µM | TK-10 > 100 µM

CC(C)Nc1n[nH]c(=O)n1C(C)C
inactive: A498 > 100 µM | ACHN > 100 µM | CCRF-CEM > 100 µM | DU-145 > 100 µM | EKVX > 100 µM | HCT-116 > 100 µM | M14 > 100 µM | MCF7 > 100 µM | MDA-MB-231 > 100 µM | MDA-N > 100 µM | NCI-H23 > 100 µM | NCI/ADR-RES > 100 µM | OVCAR-8 > 100 µM | SF-539 > 100 µM | SN12C > 100 µM | SNB-19 > 100 µM | SNB-75 99.3 µM | SR > 100 µM | TK-10 > 100 µM

Fc1ccc(C(OCCN2CCC3CCC(C2)N3CCCc2ccccc2)c2ccc(F)cc2)cc1 (configuration not stated)
inactive: A498 3.02 µM | ACHN 5.6 µM | CCRF-CEM 3.01 µM | DU-145 8 µM | EKVX 3.82 µM | HCC 2998 2.08 µM | HCT-116 2.65 µM | M14 2.1 µM | MCF7 3.74 µM | MDA-MB-231 3.87 µM | MDA-N 3.27 µM | NCI-H23 4.1 µM | NCI/ADR-RES 3.62 µM | OVCAR-8 2.24 µM | SF-539 1.35 µM | SN12C 3.57 µM | SNB-19 10.1 µM | SNB-75 2.4 µM | TK-10 4.43 µM

C[C@@H](C1CC[C@H]2[C@@H]3[C@@H]4O[C@@H]4[C@@]4(O)CC=CC(=O)[C@]4(C)[C@H]3C[C@H](O)[C@]12C)[C@H]1C[C@]2(C)O[C@]2(C)C(=O)O1 (some centres not stated)
inactive: A498 > 100 µM | ACHN > 100 µM | CCRF-CEM 56.6 µM | DU-145 > 100 µM | EKVX > 100 µM | HCC 2998 > 100 µM | HCT-116 > 100 µM | M14 > 100 µM | MCF7 > 100 µM | MDA-MB-231 > 100 µM | MDA-N > 100 µM | NCI-H23 > 100 µM | NCI/ADR-RES > 100 µM | OVCAR-8 > 100 µM | SF-539 > 100 µM | SN12C > 100 µM | SNB-19 > 100 µM | SNB-75 > 100 µM | TK-10 > 100 µM

CCOC(=O)/C=C(\C(=O)OCC)n1cc(C)c(=O)n(Cc2cn(COCCOC(C)=O)nn2)c1=O
inactive: ACHN 7.62 µM | CCRF-CEM 1.85 µM | DU-145 34.9 µM | EKVX 10.5 µM | HCC 2998 22.9 µM | HCT-116 20.5 µM | MCF7 6.78 µM | MDA-MB-231 20.1 µM | MDA-N 20.2 µM | NCI-H23 14.7 µM | NCI/ADR-RES 22.6 µM | OVCAR-8 8.43 µM | SF-539 3.61 µM | SN12C 18.1 µM | SNB-19 19 µM | SNB-75 21 µM | SR 1.44 µM | TK-10 4.97 µM

O=C(O)c1nnsc1-c1ccc(-c2snnc2C(=O)O)cc1
inactive: A498 > 100 µM | ACHN > 100 µM | CCRF-CEM 2.94 µM | DU-145 > 100 µM | EKVX 91.6 µM | HCT-116 > 100 µM | M14 > 100 µM | MCF7 27.7 µM | MDA-MB-231 > 100 µM | MDA-N > 100 µM | NCI-H23 > 100 µM | NCI/ADR-RES > 100 µM | OVCAR-8 > 100 µM | SF-539 33.7 µM | SN12C > 100 µM | SNB-19 > 100 µM | SNB-75 > 100 µM | SR 10.5 µM | TK-10 > 100 µM

CC(=O)OCC(=O)OC[C@H](OCc1ccccc1)[C@@H]1[C@H](OC(C)=O)C(=O)N1Cc1ccccc1
inactive: A498 > 100 µM | ACHN > 100 µM | CCRF-CEM > 100 µM | DU-145 > 100 µM | EKVX > 100 µM | HCT-116 > 100 µM | M14 > 100 µM | MCF7 > 100 µM | MDA-MB-231 > 100 µM | MDA-N > 100 µM | NCI-H23 > 100 µM | NCI/ADR-RES > 100 µM | OVCAR-8 > 100 µM | SN12C > 100 µM | SNB-19 > 100 µM | SNB-75 > 100 µM | SR > 100 µM | TK-10 > 100 µM

Cc1[nH]c(=O)nc(NCCNCCO)c1C(=O)Nc1c2ccccc2nc2ccccc12
inactive: A498 > 100 µM | ACHN > 100 µM | CCRF-CEM > 100 µM | DU-145 > 100 µM | EKVX > 100 µM | HCC 2998 > 100 µM | HCT-116 > 100 µM | M14 > 100 µM | MCF7 > 100 µM | MDA-MB-231 > 100 µM | MDA-N > 100 µM | NCI-H23 > 100 µM | NCI/ADR-RES > 100 µM | OVCAR-8 > 100 µM | SF-539 > 100 µM | SN12C > 100 µM | SNB-19 > 100 µM | SNB-75 > 100 µM | TK-10 > 100 µM

COc1ccccc1-n1nnc2c(N)nc(N)nc21
inactive: A498 > 100 µM | ACHN > 100 µM | CCRF-CEM > 100 µM | DU-145 > 100 µM | EKVX > 100 µM | HCT-116 > 100 µM | M14 > 100 µM | MCF7 > 100 µM | MDA-MB-231 > 100 µM | MDA-N > 100 µM | NCI-H23 > 100 µM | NCI/ADR-RES > 100 µM | OVCAR-8 > 100 µM | SF-539 > 100 µM | SN12C > 100 µM | SNB-19 > 100 µM | SNB-75 > 100 µM | SR > 100 µM | TK-10 > 100 µM

CCOC(=O)N1CCN(Cc2cc(=O)n3cc(C)ccc3n2)CC1
inactive: ACHN > 100 µM | CCRF-CEM > 100 µM | DU-145 > 100 µM | EKVX > 100 µM | HCC 2998 > 100 µM | HCT-116 > 100 µM | M14 > 100 µM | MCF7 > 100 µM | MDA-MB-231 > 100 µM | MDA-N > 100 µM | NCI-H23 > 100 µM | NCI/ADR-RES > 100 µM | OVCAR-8 > 100 µM | SF-539 > 100 µM | SN12C > 100 µM | SNB-19 > 100 µM | SNB-75 > 100 µM | SR > 100 µM | TK-10 > 100 µM

S=c1c2cc(I)ccc2nc(S)n1Cc1ccccc1
inactive: A498 3.33 µM | ACHN 3.06 µM | CCRF-CEM 1.84 µM | DU-145 2.71 µM | EKVX 3.71 µM | HCT-116 3.38 µM | M14 3.9 µM | MCF7 5.42 µM | MDA-MB-231 6.37 µM | MDA-N 3.83 µM | NCI-H23 2.91 µM | NCI/ADR-RES 3.37 µM | OVCAR-8 5.57 µM | SF-539 10.3 µM | SN12C 3.16 µM | SNB-19 4.32 µM | SNB-75 2.69 µM | SR 3.64 µM | TK-10 4.55 µM

Clc1cc2ncn(C3CCCCO3)c2cc1Cl (configuration not stated)
inactive: CCRF-CEM 56.2 µM | DU-145 81.8 µM | EKVX 20 µM | HCC 2998 64.6 µM | HCT-116 51.9 µM | M14 71.8 µM | MCF7 74 µM | MDA-MB-231 74.1 µM | MDA-N 65.8 µM | NCI-H23 70.3 µM | NCI/ADR-RES 36.9 µM | OVCAR-8 56.6 µM | SF-539 96.4 µM | SN12C 99.1 µM | SNB-19 > 100 µM | SNB-75 11.7 µM | SR 28.1 µM

Cc1cc2c(cc1Cl)Sc1n[nH]c(=O)n1S2(=O)=O
inactive: A498 19.4 µM | ACHN > 100 µM | CCRF-CEM > 100 µM | DU-145 > 100 µM | EKVX > 100 µM | HCC 2998 > 100 µM | HCT-116 > 100 µM | M14 > 100 µM | MCF7 > 100 µM | MDA-MB-231 > 100 µM | MDA-N > 100 µM | NCI-H23 > 100 µM | NCI/ADR-RES > 100 µM | OVCAR-8 > 100 µM | SF-539 > 100 µM | SN12C > 100 µM | SNB-19 > 100 µM | SNB-75 > 100 µM | TK-10 > 100 µM

O=C(CSc1nc2ccc(I)cc2c(=O)n1Cc1ccccc1)NN1C(=O)CSC1c1ccccc1 (configuration not stated)
inactive: ACHN 18.2 µM | CCRF-CEM 29.2 µM | DU-145 26.4 µM | EKVX 29.2 µM | HCC 2998 21.5 µM | HCT-116 24 µM | M14 29.5 µM | MCF7 19.2 µM | MDA-MB-231 26.9 µM | MDA-N 35.7 µM | NCI-H23 18.3 µM | NCI/ADR-RES 26.5 µM | OVCAR-8 32.7 µM | SF-539 27.9 µM | SN12C 23 µM | SNB-19 40.7 µM | SNB-75 34.2 µM | SR 26.5 µM | TK-10 27.4 µM
